From patent publication US11993574B2, “Pyrazole and imidazole compounds for inhibition of IL-17 and RORgamma” (REATA PHARMACEUTICALS, INC., priority 2018, dated 2024)

How the values were obtained:
Format in all cases: cell-based
[1] = system: Nrf2 transcription factor; assay: AREc32 luciferase reporter assay; conditions: Homo sapiens; AREc32 cells, 19 hours; concentration required to increase GST ARE luciferase reporter activity by 2-fold; read-out: NRF2 ARE 2-Fold (EC2×)
Summary of the method: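 AREc32 cells (MCF-7 with firefly luciferase under eight rat GSTA2 ARE copies) treated 19 h with compound (0.4-200 nM or 3.9-2000 nM) in triplicate. Luminescence normalized to DMSO as fold-induction, capped at 50-fold. EC2× = concentration giving 2-fold reporter increase, interpolated from variable-slope fit.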

[2] = molecular target: T1, Human RAR-related Orphan Receptor Gamma (RORγ) (Homo sapiens, UniProt P51449); assay: RORγ assay (GAL4-RORγ hybrid luciferase reporter, Indigo Biosciences); conditions: inverse-agonist activity, GAL4-RORγ reporter cells, 23 hours
T1 sequence (P51449 269-508 limits assumed): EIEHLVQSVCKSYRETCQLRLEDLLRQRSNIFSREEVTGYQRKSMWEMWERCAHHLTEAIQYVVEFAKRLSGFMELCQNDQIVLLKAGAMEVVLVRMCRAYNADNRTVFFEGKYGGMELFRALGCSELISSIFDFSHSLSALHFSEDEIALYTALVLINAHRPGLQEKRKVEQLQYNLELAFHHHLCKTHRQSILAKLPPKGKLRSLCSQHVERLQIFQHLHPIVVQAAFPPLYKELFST
Summary of the method: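 […]engineered human reporter cell line expressing GAL4-DBD/RORγ-LBD hybrid with GAL4-UAS luciferase; constitutive activity measured as inverse agonism. Cells treated with compound (7.8-2000 nM) for 23 h at 37 °C; luminescence normalized to DMSO, IC50 by variable-slope fit, with parallel viability readout to flag non-specific inhibition.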

IL-17A = assay: IL-17 release from differentiated primary human T-cells (IL-17A HTRF assay); conditions: primary human CD4+ T cells differentiated into Th17 cells, 45-hour incubation, IL-17A in supernatant; read-out: hIL17 IC50
Summary of the method: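 Primary human CD4+ T cells (~2×10^5/well) given compound (2–500 or 4–1000 nM, 0.1% DMSO), CD3/CD28-activated and Th17-differentiated (TGF-β, IL-6, IL-23, IL-1β) for 45 h at 37° C. Supernatant IL-17A by HTRF against standard curve, normalized to vehicle; IC50 by variable-slope regression, with parallel CyQuant viability.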

Cc1ccccc1-c1nn(-c2ccc(-c3ccccc3)cc2)c2c1CC[C@@H]1[C@@H](C)C(=O)C(C#N)=C[C@@]21C [T72]
EC (2-fold) [1]: 0.205 µM
IC50 [2]: 138 nM
IC50 (IL-17A): 10 nM

C[C@H]1C(=O)C(C#N)=C[C@@]2(C)c3c(c(-c4ccc(CO)cc4)nn3-c3ccc(-c4ccccc4)cc3)CC[C@H]12 [T73]
EC (2-fold) [1]: 0.159 µM
IC50 [2]: 40 nM
IC50 (IL-17A): 30 nM

C[C@H]1C(=O)C(C#N)=C[C@@]2(C)c3c(c(-c4ccc(CF)cc4)nn3-c3ccc(-c4ccccc4)cc3)CC[C@H]12 [T74]
EC (2-fold) [1]: 0.182 µM
IC50 [2]: 111 nM
IC50 (IL-17A): 16 nM

C[C@H]1C(=O)C(C#N)=C[C@@]2(C)c3c(c(C4CC4)nn3-c3ccc(-c4ccccc4)cc3)CC[C@H]12 [T75]
EC (2-fold) [1]: 0.248 µM
IC50 [2]: 68 nM
IC50 (IL-17A): 130 nM

C[C@H]1C(=O)C(C#N)=C[C@@]2(C)c3c(c(C4CCCCC4)nn3-c3ccc(-c4ccccc4)cc3)CC[C@H]12 [T76]
EC (2-fold) [1]: 0.465 µM
IC50 [2]: 73 nM
IC50 (IL-17A): 30 nM

C[C@H]1C(=O)C(C#N)=C[C@@]2(C)c3c(c(N4CCOCC4)nn3-c3ccc(-c4ccccc4)cc3)CC[C@H]12 [T77]
EC (2-fold) [1]: 0.908 µM
IC50 [2]: 111 nM
IC50 (IL-17A): 68 nM

C[C@H]1C(=O)C(C#N)=C[C@@]2(C)c3c(c(NC4CCC4)nn3-c3ccc(-c4ccccc4)cc3)CC[C@H]12 [T78]
EC (2-fold) [1]: 0.534 µM
IC50 [2]: 62 nM
IC50 (IL-17A): 48 nM

CNc1nn(-c2ccc(-c3ccccc3)cc2)c2c1CC[C@@H]1[C@@H](C)C(=O)C(C#N)=C[C@@]21C [T79]
EC (2-fold) [1]: 1.04 µM
IC50 [2]: 140 nM
IC50 (IL-17A): 178 nM

C[C@H]1C(=O)C(C#N)=C[C@@]2(C)c3c(c(N(C)C4CCC4)nn3-c3ccc(-c4ccccc4)cc3)CC[C@H]12 [T80]
EC (2-fold) [1]: 0.347 µM
IC50 [2]: 71 nM
IC50 (IL-17A): 17 nM

C[C@H]1C(=O)C(C#N)=C[C@@]2(C)c3c(c(-c4ccccn4)nn3-c3ccc(-c4ccccc4)cc3)CC[C@H]12 [T81]
EC (2-fold) [1]: 0.243 µM
IC50 [2]: 67 nM
IC50 (IL-17A): 30 nM

C[C@H]1C(=O)C(C#N)=C[C@@]2(C)c3c(c(-c4ccccc4F)nn3-c3ccc(-c4cncnc4)cc3)CC[C@H]12 [T82]
EC (2-fold) [1]: 0.208 µM
IC50 [2]: 44 nM
IC50 (IL-17A): 63 nM

Cc1cc(-c2ccc(-n3nc(-c4ccccc4F)c4c3[C@]3(C)C=C(C#N)C(=O)[C@H](C)[C@H]3CC4)cc2)cnn1 [T83]
EC (2-fold) [1]: 0.139 µM
IC50 [2]: 33 nM
IC50 (IL-17A): 20 nM

C[C@H]1C(=O)C(C#N)=C[C@@]2(C)c3c(c(-c4ccccc4F)nn3-c3ccc(-c4ccncc4)cc3)CC[C@H]12 [T84]
EC (2-fold) [1]: 0.121 µM
IC50 [2]: 23 nM
IC50 (IL-17A): 33 nM

C[C@H]1C(=O)C(C#N)=C[C@@]2(C)c3c(c(-c4ccccc4F)nn3-c3ccc(N4CCOCC4)cc3)CC[C@H]12 [T85]
EC (2-fold) [1]: 0.079 µM
IC50 [2]: 50 nM
IC50 (IL-17A): 46 nM

C[C@H]1C(=O)C(C#N)=C[C@@]2(C)c3c(c(-c4ccccc4F)nn3-c3nnc(-c4ccccc4)n3C)CC[C@H]12 [T86]
EC (2-fold) [1]: 1.48 µM
IC50 [2]: 351 nM
IC50 (IL-17A): 88 nM

C[C@H]1C(=O)C(C#N)=C[C@@]2(C)c3c(c(-c4ccccc4F)nn3-c3nc(-c4ccccc4)cs3)CC[C@H]12 [T87]
EC (2-fold) [1]: 1.26 µM
IC50 [2]: 685 nM
IC50 (IL-17A): 27 nM

C[C@H]1C(=O)C(C#N)=C[C@@]2(C)c3c(c(-c4ccccc4F)nn3-c3nc4cc(C(F)(F)F)ccc4s3)CC[C@H]12 [T88]
EC (2-fold) [1]: 0.743 µM
IC50 [2]: 219 nM
IC50 (IL-17A): 11 nM

C[C@H]1C(=O)C(C#N)=C[C@@]2(C)c3c(c(-c4ccccc4F)nn3-c3nc4ccc(Cl)cc4s3)CC[C@H]12 [T89]
EC (2-fold) [1]: 0.482 µM
IC50 [2]: 251 nM
IC50 (IL-17A): 13 nM

C[C@H]1C(=O)C(C#N)=C[C@@]2(C)c3c(c(-c4ccccc4F)nn3-c3nc4ccccc4n3C)CC[C@H]12 [T90]
EC (2-fold) [1]: 1.31 µM
IC50 [2]: 135 nM
IC50 (IL-17A): 57 nM

C[C@H]1C(=O)C(C#N)=C[C@@]2(C)c3c(c(-c4ccccc4F)nn3-c3nc4ccccc4[nH]3)CC[C@H]12 [T91]
EC (2-fold) [1]: > 2 µM
IC50 [2]: > 2000 nM
IC50 (IL-17A): > 500 nM

C[C@H]1C(=O)C(C#N)=C[C@@]2(C)c3c(c(-c4ccccc4F)nn3-c3nc4ccccc4s3)CC[C@H]12 [T92]
EC (2-fold) [1]: 0.491 µM
IC50 [2]: 340 nM
IC50 (IL-17A): 28 nM

C[C@H]1C(=O)C(C#N)=C[C@@]2(C)c3c(c(-c4ccccc4F)nn3-c3ccc(-c4ccncn4)cc3)CC[C@H]12 [T93]
EC (2-fold) [1]: 0.139 µM
IC50 [2]: 42 nM
IC50 (IL-17A): 37 nM

Cc1nc(-c2ccc(-n3nc(-c4ccccc4F)c4c3[C@]3(C)C=C(C#N)C(=O)[C@H](C)[C@H]3CC4)cc2)no1 [T94]
EC (2-fold) [1]: 0.146 µM
IC50 [2]: 65 nM
IC50 (IL-17A): 24 nM

Cc1noc(-c2ccc(-n3nc(-c4ccccc4F)c4c3[C@]3(C)C=C(C#N)C(=O)[C@H](C)[C@H]3CC4)cc2)n1 [T95]
EC (2-fold) [1]: 0.185 µM
IC50 [2]: 62 nM
IC50 (IL-17A): 40 nM

Cc1noc(-c2nn(-c3ccc(-c4ccccc4)cc3)c3c2CC[C@@H]2[C@@H](C)C(=O)C(C#N)=C[C@@]32C)n1 [T96]
EC (2-fold) [1]: 0.258 µM
IC50 [2]: 59 nM
IC50 (IL-17A): 32 nM

C[C@H]1C(=O)C(C#N)=C[C@@]2(C)c3c(c(-c4ccccc4)nn3-c3ccc(-c4ccccc4)cn3)CC[C@H]12 [T97]
EC (2-fold) [1]: 0.597 µM
IC50 [2]: 107 nM
IC50 (IL-17A): 38 nM

C[C@H]1C(=O)C(C#N)=C[C@@]2(C)c3c(c(-c4ccncn4)nn3-c3nc4ccccc4s3)CC[C@H]12 [T98]
EC (2-fold) [1]: 0.275 µM
IC50 [2]: 289 nM
IC50 (IL-17A): 78 nM

C[C@H]1C(=O)C(C#N)=C[C@@]2(C)c3c(c(-c4cccnc4)nn3-c3nc4ccccc4s3)CC[C@H]12 [T99]
EC (2-fold) [1]: 0.329 µM
IC50 [2]: 449 nM
IC50 (IL-17A): 87 nM

C[C@H]1C(=O)C(C#N)=C[C@@]2(C)c3c(c(Nc4ccccc4)nn3-c3ccc(-c4ccccc4)cc3)CC[C@H]12 [T100]
EC (2-fold) [1]: 0.319 µM
IC50 [2]: 110 nM
IC50 (IL-17A): 16 nM

C[C@H]1C(=O)C(C#N)=C[C@@]2(C)c3c(c(-c4ccncc4)nn3-c3ccc(-c4cncc(F)c4)cc3)CC[C@H]12 [T101]
EC (2-fold) [1]: 0.353 µM
IC50 [2]: 54 nM
IC50 (IL-17A): 51 nM

Cc1cc(-c2ccc(-n3nc(-c4cccnc4)c4c3[C@]3(C)C=C(C#N)C(=O)[C@H](C)[C@H]3CC4)cc2)cnn1 [T102]
EC (2-fold) [1]: 0.918 µM
IC50 [2]: 90 nM
IC50 (IL-17A): 56 nM

C[C@H]1C(=O)C(C#N)=C[C@@]2(C)c3c(c(-c4cccnc4)nn3-c3ccc(-c4cncc(F)c4)cc3)CC[C@H]12 [T103]
EC (2-fold) [1]: 0.365 µM
IC50 [2]: 47 nM
IC50 (IL-17A): 31 nM

C[C@H]1C(=O)C(C#N)=C[C@@]2(C)c3c(c(-c4cccc(F)c4)nn3-c3ccnc4ccccc34)CC[C@H]12 [T104]
EC (2-fold) [1]: 0.638 µM
IC50 [2]: 208 nM
IC50 (IL-17A): 62 nM

C[C@H]1C(=O)C(C#N)=C[C@@]2(C)c3c(c(-c4ccc(F)cc4)nn3-c3ccc(-c4cncc(F)c4)cc3)CC[C@H]12 [T105]
EC (2-fold) [1]: 0.361 µM
IC50 [2]: 67 nM
IC50 (IL-17A): 21 nM

Cc1noc(-c2ccc(-n3nc(-c4ccc(F)cc4)c4c3[C@]3(C)C=C(C#N)C(=O)[C@H](C)[C@H]3CC4)cc2)n1 [T106]
EC (2-fold) [1]: 0.29 µM
IC50 [2]: 83 nM
IC50 (IL-17A): 27 nM
